According to patent publication US10464941B2, “Therapeutic compounds” (REGENTS OF THE UNIVERSITY OF MINNESOTA, priority 2015, dated 2019):
Marks after values point to notes of the source that are not given here.

How the values were obtained:
[1] = test system: control mice; experiment: Radiant heat tail-flick antinociception, control (LPS-untreated) mice; assay type: in vivo; settings: control mice; for CONTROLS ED50 (CI) i.c.v. / CONTROLS ED50 (CI) i.t.: tail flick
Description: Pain is a hallmark of many inflammatory conditions.

[2] = test system: LPS-pretreated mice; experiment: animal or person; settings: for LPS pretreated i.c.v./i.t. ratio / LPS pretreated ED50 (CI) i.c.v. / LPS pretreated ED50 (CI) i.t.: LPS 1 mg/kg 24 hours i.p.; for LPS pretreated ED50 (CI) i.c.v. / LPS pretreated ED50 (CI) i.t.: tail flick; for ED50 values (95% CI) LPS (thermal): LPS thermal hyperalgesia model; for Relative Potency relative to a mixture of monovalent mu agonist (4) and CCR5 antagonist (2): mouse, in vivo; for percent maximal possible effect at highest dose measured: 1000 pmol/mouse
Description: Male ICR-CD1 mice (17-25 g; Harlan, Madison, Wis.), C3H mice (15-20 g, National Cancer Institute, Bethesda, Md.) or TLR4 knock-out mice (gift from Dr. Sabita Roy) were housed, 4 to a small box in a temperature- and humidity-controlled environment with unlimited access to food and water. They were maintained on a 12 h light/dark cycle. All experiments were approved by the Institutional Animal Care and Use Committee of the University of Minnesota (Minneapolis, Minn.).
The tail flick assay is used to test for antinociception described by D'Amour and Smith^64 and modified by Dewey et. al.^65 Mice are held gently in one hand with the tail positioned in the apparatus (Tail Flick Analgesia Meter, Columbus Instruments, Columbus, Ohio) for radiant heat stimulus. The tail-flick response is elicited by applying radiant heat to the dorsal side of the tail. The test latency is measured before drug treatment (control) and again after the drug treatment (test) at the peak time of the compound, a 10 s maximum cut-off time is used to prevent damage to the tail. Antinociception is quantified according to the method of Harris and Pierson^66 as the percent maximal possible effect (% MPE) which is calculated as: % MPE=(Test−Control/10−Control)×100
A minimum of three groups of eight to ten mice are used for each dose response curve, and each mouse is used only once.
The compounds were tested for acute tolerance by comparing the ED80-90 dose measured on day 1 to the same dose administered and retested 24 hours later on the same mouse.
Compounds were dissolved in 5% DMSO and diluted to less than 1% DMSO for injection. These compounds were administered in a volume of 5-μl either i.c.v (Haley and McCormick) or intrathecal (i.t.) as described for mice by Hylden and Wilcox^67 in conscious mice. […] Time course studies, including the times 5, 10, 20, 30 and 60 minutes were used to determine the peak antinociception.
Pain is a hallmark of many inflammatory conditions. […] Antinociception was evaluated using the radiant heat-induced tailflick assay. Morphine was employed as a standard opioid agonist under these conditions.

[3] = test system: CFA-induced mechanical hyperalgesia mouse model; experiment: Complete Freund's Adjuvant (CFA) mechanical hyperalgesia, electronic von Frey; assay type: in vivo, mice; settings: i.t.
Description: Before injection of CFA baseline withdrawal thresholds (g) were obtained from a mechanical stimulation using an electronic von Frey anesthesiometer (IITC Life Sciences, Woodland Hills, USA) by applying an accurate force on both left and right hind paw. (2,3) The left hindpaws were then injected (intraplantar) with a 50% solution of CFA (10 μg, Sigma-Aldrich) in water while the mice are under isoflurane anesthesia (10). Twenty-four hours later the withdrawal threshold (g) was again measured prior to and after the test compound i.t. at 10, 20, 30 and 60 minutes to determine the peak time and subsequent ED50. % MPE was calculated ((Time-point withdrawal threshold with drug−CFA withdrawal threshold)/(Day 0 withdrawal threshold−CFA withdrawal threshold))*100 (Wade, C. L., et al., PLoS One 2013, 8, e79239/1-e79239/11, 11 pp; Martinov, T., et al., J Vis Exp 2013, e51212; Sorge, R. E., et al., J. Neurosci. 2011, 31, 15450-15454).

SMILES | CONTROLS i.c.v./i.t. ratio [1] | acute tolerance (ED80 retested 24 hours later) ([1]; i.c.v.) | CONTROLS ED50 (CI) i.c.v. ([1]; i.c.v.) [pmol/mouse] | acute tolerance (ED80 retested 24 hours later) ([1]; i.t.) | CONTROLS ED50 (CI) i.t. ([1]; i.t.) [pmol/mouse] | LPS pretreated i.c.v./i.t. ratio [2] | LPS pretreated ED50 (CI) i.c.v. ([2]; i.c.v.) [pmol/mouse] | LPS pretreated ED50 (CI) i.t. ([2]; i.t.) [pmol/mouse] | ED50 values (95% CI) LPS (thermal) ([2]; i.t.) [pmol/mouse] | Relative Potency relative to a mixture of monovalent mu agonist (4) and CCR5 antagonist (2) [2] | ED50 values (95% CI) CFA (mechanical) [3] [pmol/mouse] | percent maximal possible effect at highest dose measured ([1]; i.c.v., 1000 pmol/mouse) | percent maximal possible effect at highest dose measured ([1]; i.t., 1000 pmol/mouse) [%] | percent maximal possible effect at highest dose measured ([2]; LPS pretreated, i.c.v.) [%] | percent maximal possible effect at highest dose measured ([1]; i.c.v., 250 pmol/mouse) [%] | % MPE still present 24 hours later ([2]; LPS pretreated, i.t., 24 hours later) [% MPE] | tolerance upon repeated administration ([2]; i.t., LPS-pretreated mice) | percent maximal possible effect at highest dose measured ([1]; i.t., 500 pmol/mouse) [%] | percent maximal possible effect at highest dose measured ([2]; LPS pretreated, i.t.) [%]
Cc1ccc(N(CCCN2CCC(Cc3ccc(C(N)=O)cc3)CC2)C(=O)C2CCN(C(=O)COCC(=O)NCCNC(=O)COCC(=O)N[C@H]3CC[C@@]4(O)C5Cc6ccc(O)c7c6[C@@]4(CCN5C)[C@H]3O7)CC2)cc1Cl [Compound 3a, N-(3-(4-(4-carbamoylbenzyl)piperidin-1-yl)propyl)-N-(3-chloro-4-methylphenyl)-1-(14-(((4aS,7S,7aR,12bS)-4a,9-dihydroxy-3-methyl-2,3,4,4a,5,6,7,7a-octahydro-1H-4,12-methanobenzofuro[3,2-e]isoquinolin-7-yl)amino)-5,10,14-trioxo-3,12-dioxa-6,9-diazatetradecan-1-oyl)piperidine-4-carboxamide] | 3.29 | (78.2-145)^c | 107 | (27.3-38.4)^b | 32.3 | 5.32 | 56.41 | 10.6 | 11 | 4.9 | 3 |  |  |  |  |  |  |  | 
Cc1ccc(N(CCCN2CCC(Cc3ccc(C(N)=O)cc3)CC2)C(=O)C2CCN(C(=O)COCC(=O)NCCCCCNC(=O)COCC(=O)N[C@H]3CC[C@@]4(O)C5Cc6ccc(O)c7c6[C@@]4(CCN5C)[C@H]3O7)CC2)cc1Cl [Compound 3b, N-(3-(4-(4-carbamoylbenzyl)piperidin-1-yl)propyl)-N-(3-chloro-4-methylphenyl)-1-(17-(((4aS,7S,7aR,12bS)-4a,9-dihydroxy-3-methyl-2,3,4,4a,5,6,7,7a-octahydro-1H-4,12-methanobenzofuro[3,2-e]isoquinolin-7-yl)amino)-5,13,17-trioxo-3,15-dioxa-6,12-diazaheptadecan-1-oyl)piperidine-4-carboxamide] | 3.14 | (166-72.2)^c | 358 | (253-543)^c | 371 | 6.38 | 187 | 10.9 |  | 4.8 |  |  |  |  |  |  |  |  | 
CC(=O)N1CCC(C(=O)N(CCCN2CCC(Cc3ccc(C(N)=O)cc3)CC2)c2ccc(C)c(Cl)c2)CC1 [Compound 2, TAK-220, reference compound] | 1 |  |  |  |  |  |  | 740 |  |  |  | 26.2 ± 5.9% | 34.2 ± 10.8 | 7.6 ± 1.5 |  |  |  |  | 
Cc1ccc(N(CCCN2CCC(Cc3ccc(C(N)=O)cc3)CC2)C(=O)C2CCN(C(=O)COCC(=O)NCCCCCCCNC(=O)COCC(=O)N[C@H]3CC[C@@]4(O)C5Cc6ccc(O)c7c6[C@@]4(CCN5C)[C@H]3O7)CC2)cc1Cl [Compound 3c, N-(3-(4-(4-carbamoylbenzyl)piperidin-1-yl)propyl)-N-(3-chloro-4-methylphenyl)-1-(19-(((4aS,7S,7aR,12bS)-4a,9-dihydroxy-3-methyl-2,3,4,4a,5,6,7,7a-octahydro-1H-4,12-methanobenzofuro[3,2-e]isoquinolin-7-yl)amino)-5,15,19-trioxo-3,17-dioxa-6,14-diazanonadecan-1-oyl)piperidine-4-carboxamide] |  |  |  | (54.6-507)^c | 166 | 60.7 | 692 | 11.4 |  | 4.6 |  |  |  |  | 35.9 ± 9.0 |  |  |  | 
Cc1ccc(N(CCCN2CCC(Cc3ccc(C(N)=O)cc3)CC2)C(=O)C2CCN(C(=O)COCC(=O)NCCCCCCCCCNC(=O)COCC(=O)N[C@H]3CC[C@@]4(O)C5Cc6ccc(O)c7c6[C@@]4(CCN5C)[C@H]3O7)CC2)cc1Cl [Compound 3d, N-(3-(4-(4-carbamoylbenzyl)piperidin-1-yl)propyl)-N-(3-chloro-4-methylphenyl)-1-(21-(((4aS,7S,7aR,12bS)-4a,9-dihydroxy-3-methyl-2,3,4,4a,5,6,7,7a-octahydro-1H-4,12-methanobenzofuro[3,2-e]isoquinolin-7-yl)amino)-5,17,21-trioxo-3,19-dioxa-6,16-diazahenicosan-1-oyl)piperidine-4-carboxamide] | 63.98 |  |  |  | 15.83 | 118.62 |  | 8.43 |  | 6.2 |  | 54.5 ± 14.5^ % |  | 63.1 ± 45.2 |  | 24 |  |  | 
CNC(=O)COCC(=O)NCCCCCCCNC(=O)COCC(=O)N[C@H]1CC[C@@]2(O)C3Cc4ccc(O)c5c4[C@@]2(CCN3C)[C@H]1O5 [Compound 4, reference compound] | 0.95 | (83.1-141)^c | 108 | (86.5-148)^c | 113 | 7.93 | 169 | 21.3 | 21 |  | 27 |  |  |  |  |  | exhibited tolerance |  | 
CNC(=O)COCC(=O)NCCCCCCCNC(=O)COCC(=O)N1CCC(C(=O)N(CCCN2CCC(Cc3ccc(C(N)=O)cc3)CC2)c2ccc(C)c(Cl)c2)CC1 [Compound 5, N-(3-(4-(4-carbamoylbenzyl)piperidin-1-yl)propyl)-N-(3-chloro-4-methylphenyl)-1-(3,7,17-trioxo-5,19-dioxa-2,8,16-triazahenicosan-21-oyl)piperidine-4-carboxamide] |  |  | 505 |  |  |  |  |  |  |  |  |  |  | 51.9 ± 12.3 |  |  |  | 28.1 ± 11.3 | 32.4 ± 12.5
Cc1ccc(N(CCCN2CCC(Cc3ccc(C(N)=O)cc3)CC2)C(=O)C2CCN(C(=O)COCC(=O)NCCCCCCCCCCCCNC(=O)COCC(=O)N[C@H]3CC[C@@]4(O)C5Cc6ccc(O)c7c6[C@@]4(CCN5C)[C@H]3O7)CC2)cc1Cl [Compound 3f, N-(3-(4-(4-carbamoylbenzyl)piperidin-1-yl)propyl)-N-(3-chloro-4-methylphenyl)-1-(24-(((4aS,7S,7aR,12bS)-4a,9-dihydroxy-3-methyl-2,3,4,4a,5,6,7,7a-octahydro-1H-4,12-methanobenzofuro[3,2-e]isoquinolin-7-yl)amino)-5,20,24-trioxo-3,22-dioxa-6,19-diazatetracosan-1-oyl)piperidine-4-carboxamide] | ~2.97 |  |  |  | 336.9 | 8.15^d |  | 122.70 | 123 | 0.4 | 58 | 27.6 ± 9.1% |  | 55.7 ± 11.2 |  |  |  |  | 
